Experimental data as given in patent publication US20250276031A1, “PRODRUGS AS SELECTIVE ANTIBIOTICS AGAINST COLIBACTIN-PRODUCING E. COLI” (New York University in Abu Dhabi Corporation, priority 2024, published 2025).

Experiments:
[1] = test system: E. coli expressing the ClbP protease; experiment: Growth curves with PXCNA; type: cell-based; conditions: crude extract, 10, 25, 50 mg/L; IPTG induced; 22° C., 24 hrs, OD600
Experimental: Growth curves made using PXCNA. Briefly, a single colony from E. coli strain C41(DE3)_ΔacrABpET-29b clbP strain was inoculated into LB medium supplemented with kanamycin (50 μg/ml). This culture was grown overnight at 37° C. while shaking at 200 RPM. 1:100 dilution of overnight culture into fresh LB medium supplemented with kanamycin (50 μg/ml) was performed. Samples were induced with IPTG (0.5 mM). A crude extract of PXCNA prepared in methanol (1 mg/ml). The final concentration in samples was 50 mg/L, 25 mg/L and 10 mg/L. Samples were incubated at 22° C. for 24 hrs and OD600 was measured using TecanSpark.

[2] = test system: E. coli C41 DE3 pet29b_clbP pSEVA631_mGFP and E. coli C41 DE3 pet29b pSEVA_mScarlet-i; experiment: Co-culture competition assay with PXCNA (mGFP / mScarlet-i fluorescence, OD600); type: cell-based
Experimental: PXCNA activity was measured via fluorescence (see FIGS. 18 and 19).
A co-culture assay was performed. Overnight cultures of E. coli C41 DE3 pet29b_cIbP pSEVA631_mGFP and E. coli C41 DE3 pet29b pSEVA_mScarlet-i were prepared separately each from a single colony. Then 1:100 dilution of each culture into the same LB media well supplemented with kanamycin (50 μg/ml) and gentamycin (15 μg/ml) was performed. […] Samples were fed with PXCNA with a final concentration of 25 mg/L.

[3] = test system: Escherichia coli ribosome; conditions: comparison value, no own experiment described; read-out: IC50 of chloramphenicol given for comparison; cited from earlier work

SMILES	selective killing of ClbP expressing E. coli [1]	mGFP and mScarlet-i fluorescence in co-culture ([2]; PXCNA 25 mg/L, vanillic acid, with or without IPTG)	OD600 growth of E. coli C41 DE3 pet29b_clbP pSEVA631_mGFP ([2]; only vanillic acid and PXCNA added, no IPTG)	IC50 [3] [nM]
CC(C)CCCC(=O)N[C@H](CC(N)=O)C(=O)N[C@@H](CCCN=C(N)N)[C@H](O)[C@H](O)C(=O)N[C@@H](CC(C)C)[C@@H]1Cc2cccc(O)c2C(=O)O1 [PXCNA, prexenocoumacin]	kills selectively E. coli expressing the ClbP protease	low level of fluorescence observed for both	growth did not appear inhibited	–
O=C(N[C@H](CO)[C@H](O)c1ccc([N+](=O)[O-])cc1)C(Cl)Cl [chloramphenicol]	–	–	–	2800
